In general, inhibition refers to the change of the read-out against control, counted positive when it falls. In general, AUC refers to concentration integrated over time. A higher AUC goes with more exposure. Usually Cmax stands for the peak of the concentration-time curve. As usually defined, the half-life is the time needed for the level to fall by half in the phase considered.

SMILES strings stand for the structures. Where a name gives a salt, the structure may show the parent alone.

T1 sequence (Q9H3N8 whole entry): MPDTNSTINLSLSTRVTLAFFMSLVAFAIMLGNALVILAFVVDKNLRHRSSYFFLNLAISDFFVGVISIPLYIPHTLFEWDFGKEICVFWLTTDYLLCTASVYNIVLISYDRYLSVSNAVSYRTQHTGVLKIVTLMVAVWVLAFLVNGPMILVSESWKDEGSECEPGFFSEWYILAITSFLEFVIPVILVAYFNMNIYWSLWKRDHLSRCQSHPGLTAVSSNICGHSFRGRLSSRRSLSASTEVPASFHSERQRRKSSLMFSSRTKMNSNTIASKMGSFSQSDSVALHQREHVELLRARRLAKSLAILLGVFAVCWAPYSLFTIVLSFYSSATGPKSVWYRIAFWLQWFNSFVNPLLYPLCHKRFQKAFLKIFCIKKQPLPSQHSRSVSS

One data set concerns the target T1, human histamine 4 receptor (hH4R) (Homo sapiens, UniProt Q9H3N8).
T1 construct: purchased Multispan
The data set can be described thus: Binding affinity of human histamine 4 receptor (hH4R), [3H] histamine displacement. Particulars: [3H] labeled histamine, hH4R-overexpressed cell membrane. As for the experimental part: The compounds prepared in the above Examples, the compound of Example 55 of International Publication No. WO 2010/030785 and the compound of Example 4 of International Publication No. WO 2013/048214 were diluted by 1,000 fold (v/w) with DMSO, and then 1 mL of the diluted compound solution was mixed with 99 mL of the analysis buffer solution (50 mM tris-HCl pH 7.4, 5 mM EDTA) to obtain concentration of 1 μM. […] of the prepared compound solution was transferred to each well of a 96-well plate, and then 20 mL of 100 μM histamine diluted with analysis buffer solution and 1% DMSO were transferred to each well to calculate non-specific binding and total binding degree. 15 μg of human histamine 4 receptor-overexpressed cell membrane (Multispan) was diluted into […] of analysis buffer solution and that was transferred to each well. [^3H] labeled histamine (PerkinElmer) was diluted into 10 nM concentration, 20 mL was allocated in each well, and then it was kept in a 27° C. incubator for 30 minutes. After the reaction, 100 mL of the mixture was transferred to a glass fiber plate in which 0.5% polyethylene amine was pre-soaked, and then non-binding [^3H] labeled histamine was removed in vacuum. After 6 times washing with 200 mL of washing buffer solution (50 mM tris-HCl, pH 7.4), the plate was dried in a 37° C. oven for 18 hours. […] of betaScint cocktail solution was added to each well, and after 10 minutes CPM (count per minute) value of [^3H] labeled histamine was measured by the use of Micro beta2™. The binding affinity (% inhibition) of the human histamine 4 receptor for the compounds of the present invention was analyzed by an Excel program, and the results of analysis are represented in Table 1.
Turning to `CN1CCN(C2=Nc3ncc(Br)cc3N3CC(=O)N=C23)CC1` [Example 1, 8-bromo-4-(4-methylpiperazin-1-yl)imidazo[1,2-a]pyrido[2,3-e]pyrazin-2(1H)-one], the inhibition at 1 µM was found to be 79.7%. With `CNC1CN(C2=Nc3ncc(Br)cc3N3CC(=O)N=C23)C1` [Example 2, 8-bromo-4-(3-(methylamino)azetidin-1-yl)imidazo[1,2-a]pyrido[2,3-e]pyrazin-2(1H)-one], the inhibition at 1 µM was determined as 39.5%. Same read-out and setting: in the case of `CN[C@@H]1CCN(C2=Nc3ncc(Br)cc3N3CC(=O)N=C23)C1` [Example 3, (R)-8-bromo-4-(3-(methylamino)pyrrolidin-1-yl)imidazo[1,2-a]pyrido[2,3-e]pyrazin-2(1H)-one] it was 9.8%; in that of `CN[C@H]1CCN(C2=Nc3ncc(Br)cc3N3CC(=O)N=C23)C1` [Example 4, (S)-8-bromo-4-(3-(methylamino)pyrrolidin-1-yl)imidazo[1.2-a]pyrido[2.3-e]pyrazin-2(1H)-one], -4.38%; in that of `O=C1CN2C(=N1)C(N1CCN3CCCC3C1)=Nc1ncc(Br)cc12` (stereo not drawn) [Example 5, 8-bromo-4-(hexahydropyrrolo[1,2-a]pyrazin-2(1H)-yl)imidazo[1,2-a]pyrido[2,3-e]pyrazin-2(1H)-one], 55.9%.

For the molecule `CN1CCN(c2nc3ncc(Br)cc3n3c(=O)[nH]nc23)CC1` [Example 6, 8-bromo-4-(4-methylpiperazin-1-yl)pyrido[2,3-e][1,2,4] triazolo[4,3-a]pyrazin-1(2H)-one], the inhibition at 1 µM worked out at 42.6%.

As for `CN1CCN(c2nc3ncc(Br)cc3n3[nH]c(=O)nc23)CC1` [Example 7, 8-bromo-4-(4-methylpiperazin-1-yl)pyrido[2,3-e][1,2,4] triazolo[1,5-a]pyrazin-2(1H)-one], the inhibition at 1 µM is -1.12%. For the molecule `CN1CCN(C2=Nc3nc(Cl)c(Br)cc3N3CC(=O)N=C23)CC1` [Example 8, 8-bromo-7-chloro-4-(4-methylpiperazin-1-yl)imidazo[1,2-a]pyrido[2,3-e]pyrazin-2(1H)-one], the inhibition at 1 µM is 88.9%. The same measure, in the same setting: under `CN1CCN(C2=Nc3nc(F)c(Br)cc3N3CC(=O)N=C23)CC1` [Example 9, 8-bromo-7-fluoro-4-(4-methylpiperazin-1-yl)imidazo[1.2-a]pyrido[2,3-e]pyrazin-2(1H)-one] stands 94.4%; under `CN1CCN(C2=Nc3ccc([N+](=O)[O-])cc3N3CC(=O)N=C23)CC1` [Example 10, 4-(4-methylpiperazin-1-yl)-8-nitroimidazo[1,2-a]quinoxalin-2(1H)-one], 98.1%. Still for that read-out and setting: in the case of `CN1CCN(C2=Nc3ccc(N)cc3N3CC(=O)N=C23)CC1` [Example 11, 8-amino-4-(4-methylpiperazin-1-yl)imidazo[1,2-a]quinoxalin-2(1H)-one] it was 44.8%; in that of `CN1CCN(C2=Nc3ccc(Br)cc3N3CC(=O)NN=C23)CC1` [Example 14, 9-bromo-5-(4-methylpiperazin-1-yl)-1H -[1,2,4]triazino[43-a]quinoxalin-2(3H)-one], 52.6%.

Take `CN1CCN(C2=Nc3ccc(Br)c(Br)c3N3CC(=O)N=C23)CC1` [Example 15, 8,9-dibromo-4-(4-methylpiperazin-1-yl)imidazo[1,2-a]quinoxalin-2(1H)-one]: the inhibition at 1 µM amounted to 99.2%. On to `CNC1CN(C2=Nc3ccc(NS(C)(=O)=O)cc3N3CC(=O)N=C23)C1` [Example 16, N-(4-(3-(methylamino)azetidin-1-yl)-2-oxo-1,2-dihydroimidazo[1,2-a]quinoxalin-8-yl)methanesulfonamide], for which the inhibition at 1 µM is -5.98%. On the same count and under the same terms, in the case of `CN1CCN(C2=Nc3ncc(Cl)cc3N3CC(=O)N=C23)CC1` [Example 17, 8-chloro-4-(4-methylpiperazin-1-yl)imidazo[1,2-a]pyrido[2,3-e]pyrazin-2(1H)-one] it was 87.1%; in that of `CNC1CN(C2=Nc3ccc(N)cc3N3CC(=O)N=C23)C1` [Example 18, 8-amino-4-(3-(methylamino)azetidin-1-yl)imidazo[1,2-a]quinoxalin-2(1H)-one], 34.1%; in that of `CNC1CN(C2=Nc3ccc(Cl)cc3N3CC(=O)N=C23)C1` [Example 19, 8-chloro-4-(3-(methylamino)azetidin-1-yl)imidazo[1,2-a]quinoxalin-2(1H)-one], 96%. Take `CNC1CN(C2=Nc3ncc(Cl)cc3N3CC(=O)N=C23)C1` [Example 20, 8-chloro-4-(3-(methylamino)azetidin-1-yl)imidazo[1,2-a]pyrido[2,3-e]pyrazin-2(1H)-one]: the inhibition at 1 µM worked out at 20.5%. As for `CNC1CN(C2=Nc3ccc(Br)cc3N3CC(=O)N=C23)C1` [Example 21, 8-bromo-4-(3-(methylamino)azetidin-1-yl)imidazo[1,2-a]quinoxalin-2(1H)-one hydrochloride], the inhibition at 1 µM is 95.9%. As for `CN1CCN(C2=Nc3cc(Cl)ncc3N3CC(=O)N=C23)CC1` [Example 22, 3-chloro-6-(4-methylpiperazin-1-yl)imidazo[1,2-a]pyrido[4,3-e]pyrazin-8(9H)-one], the inhibition at 1 µM came to 86.3%. Same read-out and setting: under `CNC1CN(C2=Nc3cnc(Cl)cc3N3CC(=O)N=C23)C1` [Example 23, 8-chloro-4-(3-(methylamino)azetidin-1-yl)imidazo[1.2-a]pyrido[3.4-e]pyrazin-2(1H)-one hydrochloride] stands 89.4%.

Regarding `CNC1CN(C2=Nc3cnc(Cl)cc3N3CC(=O)N=C23)C1` [Example 24, 8-chloro-4-(3-(methylamino)azetidin-1-yl)imidazo[1,2-a]pyrido[3,4-e]pyrazin-2(1H)-one], the “Human histamine 4 receptor (hH4R) binding affinity (% inhibition at 1 μM)” value was 91.9%. With `CN1CCN(C2=Nc3cnc(Br)cc3N3CC(=O)N=C23)CC1` [Example 25, 8-bromo-4-(4-methylpiperazin-1-yl)imidazo[1,2-a]pyrido[3,4-e]pyrazin-2(1H)-one], the inhibition at 1 µM came to 96.9%. With `CNC1CN(C2=Nc3cnc(Br)cc3N3CC(=O)N=C23)C1` [Example 26, 8-bromo-4-(3-(methylamino)azetidin-1-yl)imidazo[1,2-a]pyrido[3,4-e]pyrazin-2(1H)-one], the inhibition at 1 µM turned out to be 93.4%. Take `CN1CCN(C2=Nc3ncc(Br)cc3N3CS(=O)(=O)N=C23)CC1` [Example 27, 8-bromo-4-(4-methylpiperazin-1-yl)-1H-pyrido[2,3-e][1,2,4]thiadiazolo[4,3-a]pyrazin 2,2-dioxide]: the inhibition at 1 µM came to 22.6%. As for `CN1CCN(C2=Nc3cnc(Cl)cc3N3CC(=O)N=C23)CC1` [Example 28, 8-chloro-4-(4-methylpiperazin-1-yl)imidazo[1,2-a]pyrido[3,4-e]pyrazin-2(1H)-one hydrochloride], the inhibition at 1 µM turned out to be 96.8%. Take `CN1CCN(C2=Nc3ccc(Cl)nc3N3CC(=O)N=C23)CC1` [Example 29, 2-chloro-6-(4-methylpiperazin-1-yl)imidazo[1,2-a]pyrido[3,2-e]pyrazin-8(9H)-one]: the inhibition at 1 µM was determined as 97.3%. Still for that read-out and setting: under `CN1CCN(C2=Nc3ccc(Br)nc3N3CC(=O)N=C23)CC1` [Example 30, 2-bromo-6-(4-methylpiperazin-1-yl)imidazo[1,2-a]pyrido[3,2-e]pyrazin-8(9H)-one] stands 93.2%; under `CNC1CN(C2=Nc3ccc(Cl)nc3N3CC(=O)N=C23)C1` [Example 31, 2-chloro-6-(3-(methylamino)azetidin-1-yl)imidazo[1,2-a]pyrido[3,2-e]pyrazin-8(9H)-one], 97.7%.

As for `CNC1CN(C2=Nc3ccc(Br)nc3N3CC(=O)N=C23)C1` [Example 32, 2-bromo-6-(3-(methylamino)azetidin-1-yl)imidazo[1,2-a]pyrido[3,2-e]pyrazin-8(9H)-one], the inhibition at 1 µM amounted to 97.4%.

System in another data set: not listed separately
The data set can be described thus: Test for pharmacokinetics in ICR mice (oral). Type of data set: in vivo. Particulars: 50 mg/kg, ICR mouse, 5 mg/mL solution at 10 mL/kg, plasma. As for the experimental part: As the administration solution for mice of the compounds prepared in the above
Examples, the compound of Example 55 of International Publication No. WO 2010/030785 and the compound of Example 4 of International Publication No. WO 2013/048214, 20% hydroxypropyl-β-cyclodextrin solution (99.75%) and 2N HCl (0.25%) were added sequentially to make 5 mg/mL. Provided that in the case of the compound of Example 10, 99.5% of 20% hydroxypropyl-β-cyclodextrin solution and 0.5% of 2N HCl […] were added.
The weight of each ICR mouse was properly 20-30 g. Dosage of the compound of the present invention was 10 mL/kg, and administered orally using Zonde. Blood collection was performed at 0.5, 1, 2, 4, 7 and 24 hours by orbital venous blood collection using a capillary tube coated with an anticoagulant, and then plasma was isolated using a centrifuge and kept in a freezer.
Plasma collected from animals and standard concentration material were pre-treated using solid-phase extraction, and concentration of the compound of the invention was determined using a liquid chromatography mass spectrometer (Agilent HPLC, API-4000 Qtrap). According to the resulting concentration value, the pharmacokinetics parameter was found using WinNonlin (Version 7.0) and half-life (t1/2), maximum blood concentration (Cmax) and area under the curve (AUCall) are represented in Table 2.
As to `CN1CCN(C2=Nc3ncc(Br)cc3N3CC(=O)N=C23)CC1` [Example 1, 8-bromo-4-(4-methylpiperazin-1-yl)imidazo[1,2-a]pyrido[2,3-e]pyrazin-2(1H)-one], the AUC came to 8650 ng·h/mL, the Cmax stood at 2280 ng/mL and the half-life is 229 min.

In the case of `CN1CCN(C2=Nc3ccc([N+](=O)[O-])cc3N3CC(=O)N=C23)CC1` [Example 10, 4-(4-methylpiperazin-1-yl)-8-nitroimidazo[1,2-a]quinoxalin-2(1H)-one], the AUC was found to be 920 ng·h/mL, the peak level (Cmax) was 360 ng/mL and the half-life is 122 min.

The values above are taken from US20210198259A1, “HETEROCYCLIC DERIVATIVES AND USE THEREOF” (C&C RESEARCH LABORATORIES, priority 2018, published 2021).
